Structures can show the parent of a compound that is named as a salt. Where two headings read alike, the source gives them in different places. Numbered stars: 1 amine (or outer) side, 2 acyl side, 3 side chain; on linkers, the order of the positions; unused ones are H or OH. Square brackets hold non-standard residues; d marks the D form. Peptide text beside a SMILES is read from it. * marks the point of attachment. X1 = CC(=O)O[C@]1(C(C)=O)CC[C@H]2[C@@H]3CCC4=CC(=O)CCC4=C3[C@@H](c3ccc(*)cc3)C[C@@]21C; Exatecan = CC[C@@]1(O)C(=O)OCc2c1cc1n(c2=O)Cc2c-1nc1cc(F)c(C)c3c1c2[C@@H](N*)CC3; NHCH2OCH2CO = O=C(COCN[*:1])[*:2]; Sar = CNCC(=O)O

For experiment [1], the target named is T1, Progesterone PR-B receptors from human breast carcinoma T47D cells (Homo sapiens, UniProt P06401).
T1 sequence (P06401 1-933): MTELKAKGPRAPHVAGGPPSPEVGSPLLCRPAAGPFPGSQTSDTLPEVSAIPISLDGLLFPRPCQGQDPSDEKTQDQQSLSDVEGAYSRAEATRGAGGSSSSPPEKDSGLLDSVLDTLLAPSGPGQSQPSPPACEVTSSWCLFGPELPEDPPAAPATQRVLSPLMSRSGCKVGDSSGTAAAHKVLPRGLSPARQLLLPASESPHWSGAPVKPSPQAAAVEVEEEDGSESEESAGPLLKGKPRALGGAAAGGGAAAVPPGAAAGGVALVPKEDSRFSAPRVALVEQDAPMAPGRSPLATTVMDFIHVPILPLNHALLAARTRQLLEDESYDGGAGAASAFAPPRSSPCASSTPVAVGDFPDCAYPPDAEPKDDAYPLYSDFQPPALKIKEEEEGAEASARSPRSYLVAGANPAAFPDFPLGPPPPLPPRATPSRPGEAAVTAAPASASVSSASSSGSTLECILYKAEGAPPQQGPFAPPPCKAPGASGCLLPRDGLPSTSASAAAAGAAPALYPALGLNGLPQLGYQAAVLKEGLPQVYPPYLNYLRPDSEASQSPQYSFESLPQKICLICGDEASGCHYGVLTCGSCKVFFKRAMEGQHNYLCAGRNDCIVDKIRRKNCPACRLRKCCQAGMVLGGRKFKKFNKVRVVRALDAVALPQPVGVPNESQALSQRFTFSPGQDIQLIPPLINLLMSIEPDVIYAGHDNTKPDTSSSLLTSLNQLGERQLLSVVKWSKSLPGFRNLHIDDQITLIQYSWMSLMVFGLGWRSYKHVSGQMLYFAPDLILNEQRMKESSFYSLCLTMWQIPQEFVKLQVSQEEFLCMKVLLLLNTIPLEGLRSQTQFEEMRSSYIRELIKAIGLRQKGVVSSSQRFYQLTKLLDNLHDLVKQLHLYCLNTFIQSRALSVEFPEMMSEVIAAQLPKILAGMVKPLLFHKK
As to the kind of experiment: PR binding assay ([3H] Progesterone displacement).

The next experiment relates to LNCap cells. As to the kind of experiment: Cell viability assay (CellTiterGlo). Type of experiment: cell-based. To be noted: Homo sapiens, 144 h.
For a further experiment, the system named is IEC6 cells. Nature of the experiment: Cell viability assay (CellTiterGlo). To be noted: Rattus norvegicus, IEC-6, 144 h, read-out: IEC-6 (IC50, nM).
Experiment [2] concerns the target T2, GR (cytosol from IM-9 cells) (Homo sapiens, UniProt P04150).
T2 sequence (P04150 1-777): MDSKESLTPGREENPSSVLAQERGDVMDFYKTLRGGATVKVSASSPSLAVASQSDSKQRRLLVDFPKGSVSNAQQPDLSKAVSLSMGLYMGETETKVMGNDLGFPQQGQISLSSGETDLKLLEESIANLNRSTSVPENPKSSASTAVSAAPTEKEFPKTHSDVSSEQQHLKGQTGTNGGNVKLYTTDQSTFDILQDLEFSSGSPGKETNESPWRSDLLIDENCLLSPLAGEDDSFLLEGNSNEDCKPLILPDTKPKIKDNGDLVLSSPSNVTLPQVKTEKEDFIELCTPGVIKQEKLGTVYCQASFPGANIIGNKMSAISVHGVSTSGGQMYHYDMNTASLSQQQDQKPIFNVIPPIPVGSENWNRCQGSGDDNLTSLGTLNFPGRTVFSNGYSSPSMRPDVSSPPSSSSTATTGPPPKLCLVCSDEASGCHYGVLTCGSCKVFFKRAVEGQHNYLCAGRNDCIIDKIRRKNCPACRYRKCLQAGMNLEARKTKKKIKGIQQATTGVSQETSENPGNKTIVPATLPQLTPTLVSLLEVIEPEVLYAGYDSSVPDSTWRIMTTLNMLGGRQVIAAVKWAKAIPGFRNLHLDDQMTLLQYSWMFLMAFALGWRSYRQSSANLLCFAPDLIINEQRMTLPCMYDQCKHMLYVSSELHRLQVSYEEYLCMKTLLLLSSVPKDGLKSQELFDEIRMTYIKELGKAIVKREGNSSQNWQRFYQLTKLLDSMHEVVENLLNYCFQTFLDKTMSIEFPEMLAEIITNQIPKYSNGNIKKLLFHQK
As to the kind of experiment: GR binding assay (3H-Dexamethasone displacement).

Experiment [3] addresses T3, AR (cytosol from LnCaP cells) (Homo sapiens, UniProt P10275, T878A).
T3 sequence (P10275 1-920 T878A): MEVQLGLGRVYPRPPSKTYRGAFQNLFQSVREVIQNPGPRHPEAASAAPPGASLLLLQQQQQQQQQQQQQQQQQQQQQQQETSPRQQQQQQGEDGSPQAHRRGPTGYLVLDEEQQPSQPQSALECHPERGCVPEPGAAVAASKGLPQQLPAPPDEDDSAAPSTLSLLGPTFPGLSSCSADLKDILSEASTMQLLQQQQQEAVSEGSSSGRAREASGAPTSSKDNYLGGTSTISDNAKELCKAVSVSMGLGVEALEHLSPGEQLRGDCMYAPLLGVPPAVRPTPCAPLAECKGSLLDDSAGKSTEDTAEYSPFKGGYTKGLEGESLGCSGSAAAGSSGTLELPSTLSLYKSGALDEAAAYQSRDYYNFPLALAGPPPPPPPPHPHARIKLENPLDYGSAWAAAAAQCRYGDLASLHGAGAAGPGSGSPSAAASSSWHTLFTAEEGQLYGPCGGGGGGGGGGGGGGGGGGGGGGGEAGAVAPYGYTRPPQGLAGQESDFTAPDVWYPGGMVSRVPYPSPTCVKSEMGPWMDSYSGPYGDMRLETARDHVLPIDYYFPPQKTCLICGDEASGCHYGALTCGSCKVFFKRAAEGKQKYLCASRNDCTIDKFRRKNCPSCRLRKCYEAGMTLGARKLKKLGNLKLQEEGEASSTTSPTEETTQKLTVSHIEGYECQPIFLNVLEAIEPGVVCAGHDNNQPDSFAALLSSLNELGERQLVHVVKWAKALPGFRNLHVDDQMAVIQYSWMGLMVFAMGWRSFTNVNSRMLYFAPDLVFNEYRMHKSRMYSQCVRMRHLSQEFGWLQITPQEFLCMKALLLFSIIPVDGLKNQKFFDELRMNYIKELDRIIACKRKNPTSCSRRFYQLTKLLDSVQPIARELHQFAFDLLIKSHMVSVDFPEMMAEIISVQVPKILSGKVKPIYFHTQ
As to the kind of experiment: AR binding assay (3H-R1881 displacement).
Description: The plate was then centrifuged at 3000 rpm for 30 minutes at 4° C.

[4] abbreviates: 6 days incubation, CellTiterGlo, read-out: LNCap (IC50).

On to `CC[C@@]1(O)C(=O)OCc2c1cc1n(c2=O)Cc2cc3c(CN4CCN(C(=O)C5CCN(c6ccc(C(=O)N[C@H]7CC[C@H](Oc8ccc(C#N)c(Cl)c8C)CC7)nn6)CC5)CC4)c(OC(=O)N4C[C@H](C)N(C)C[C@H]4C)ccc3nc2-1` [Compound 30, (S)-10-((4-(1-(6-(((1r,4r)-4-(3-Chloro-4-cyano-2-methylphenoxy)cyclohexyl)carbamoyl)-pyridazin-3-yl)piperidine-4-carbonyl)piperazin-1-yl)methyl)-4-ethyl-4-hydroxy-3,14-dioxo-3,4,12,14-tetrahydro-1H-pyrano[3′,4′:6,7]indolizino[1,2-b]quinolin-9-yl (2R,5S)-2,4,5-trimethylpiperazine-1-carboxylate Formate], for which the IC50 was under 10 nM in experiment [1]; 10 to 100 nM in the experiment on LNCap cells (read-out: LNCap (IC50, nM)); over 1000 nM in the experiment on IEC6 cells; over 1000 nM in experiment [2]; under 10 nM in experiment [3].
For `CC[C@@]1(O)C(=O)OCc2c1cc1n(c2=O)Cc2cc3c(CN(C)C)c(OC(=O)N4CCN(CC5CCN(c6ccc(C(=O)N[C@H]7CC[C@H](Oc8ccc(C#N)c(Cl)c8C)CC7)nn6)CC5)CC4)ccc3nc2-1` [Compound 31, (S)-10-((Dimethylamino)methyl)-4-ethyl-4-hydroxy-3,14-dioxo-3,4,12,14-tetrahydro-1H-pyrano[3′,4′:6,7]indolizino[1,2-b]quinolin-9-yl 4-((1-(6-(((1r,4r)-4-(3-chloro-4-cyano-2-methylphenoxy)cyclohexyl)carbamoyl)pyridazin-3-yl)piperidin-4-yl)methyl)piperazine-1-carboxylate Formate], the IC50 in experiment [1] is under 10 nM; with LNCap cells (read-out: LNCap (IC50, nM)), 10 to 100 nM; with IEC6 cells it was 101 to 1000 nM; in experiment [2], over 1000 nM; in experiment [3], under 10 nM.
`CC[C@@]1(O)C(=O)OCc2c1cc1n(c2=O)Cc2c-1nc1cc(F)c(C)c3c1c2[C@@H](NC(=O)COCNC(=O)CNC(=O)[C@H](Cc1ccccc1)NC(=O)CNC(=O)CN(C)c1ccc([C@H]2C[C@@]4(C)[C@@H](CC[C@]4(OC(C)=O)C(C)=O)[C@@H]4CCC5=CC(=O)CCC5=C42)cc1)CC3` [Compound 34, (8S,11R,13S,14S,17R)-17-Acetyl-11-(4-(((S)-10-benzyl-1-(((1S,9S)-9-ethyl-5-fluoro-9-hydroxy-4-methyl-10,13-dioxo-2,3,9,10,13,15-hexahydro-1H,12H-benzo[de]pyrano[3′,4′:6,7]indolizino[1,2-b]quinolin-1-yl)amino)-1,6,9, 12,15-pentaoxo-3-oxa-5,8,11,14-tetraazahexadecan-16-yl)(methyl)amino)phenyl)-13-methyl-3-oxo-2,3,6,7,8,11,12,13,14,15,16,17-dodecahydro-1H-cyclopenta[a]phenanthren-17-yl Acetate] (X1-[Sar]GFG[NHCH2OCH2CO]-Exatecan): the IC50 was under 10 nM in experiment [1], 101 to 1000 nM in the experiment on IEC6 cells, under 10 nM in experiment [2] and 10 to 100 nM in experiment [3].
With `CC[C@@]1(O)C(=O)OCc2c1cc1n(c2=O)Cc2cc3c(CN4CCN(CCCCCCN(C)c5ccc([C@H]6C[C@@]7(C)[C@@H](CC[C@]7(OC(C)=O)C(C)=O)[C@@H]7CCC8=CC(=O)CCC8=C76)cc5)CC4)c(O)ccc3nc2-1` [Compound 36, (8S,11R,13S,14S,17R)-17-acetyl-11-(4-((6-(4-(((S)-4-ethyl-4,9-dihydroxy-3,14-dioxo-3,4,12,14-tetrahydro-1H-pyrano[3′,4′:6,7]indolizino[1,2-b]quinolin-10-yl)methyl)piperazin-1-yl)hexyl)(methyl)amino)phenyl)-13-methyl-3-oxo-2,3,6,7,8,11,12,13,14,15,16,17-dodecahydro-1H-cyclopenta[a]phenanthren-17-yl acetate], the IC50 was under 10 nM in experiment [1]; 10 to 100 nM in the experiment on LNCap cells (setting [4]); 101 to 1000 nM with IEC6 cells; 101 to 1000 nM in experiment [2]; 10 to 100 nM in experiment [3].
In the case of `CC[C@@]1(O)C(=O)OCc2c1cc1n(c2=O)Cc2c-1nc1cc(F)c(C)c3c1c2[C@@H](N(C)C(=O)COCC1CCN(CCCCCCCN(C)c2ccc([C@H]4C[C@@]5(C)[C@@H](CC[C@]5(OC(C)=O)C(C)=O)[C@@H]5CCC6=CC(=O)CCC6=C54)cc2)CC1)CC3` [Compound 55, (8S,11R,13S,14S,17R)-17-acetyl-11-(4-((7-(4-((2-(((1S,9S)-9-ethyl-5-fluoro-9-hydroxy-4-methyl-10,13-dioxo-2,3,9,10,13,15-hexahydro-1H,12H-benzo[de]pyrano[3′,4′:6,7]indolizino[1,2-b]quinolin-1-yl)(methyl)amino)-2-oxoethoxy)methyl)piperidin-1-yl)heptyl)(methyl)amino)phenyl)-13-methyl-3-oxo-2,3,6,7,8,11,12,13,14,15,16,17-dodecahydro-1H-cyclopenta[a]phenanthren-17-yl acetate], the IC50 is under 10 nM in experiment [1]; 101 to 1000 nM with LNCap cells (setting [4]); over 1000 nM in the experiment with IEC6 cells; under 10 nM in experiment [2]; 10 to 100 nM in experiment [3].
